According to patent US8173635B2, “Kinase inhibitors” (Vertex Pharmaceuticals Incorporated, priority 2007, dated 2012):

Key:
Assay type in all cases: biochemical
[1] = target: PKC delta kinase (Homo sapiens, UniProt Q05655); test: PKC delta kinase inhibition, coupled-enzyme NADH absorbance assay (Ki); details: 150 μM ATP, 46 nM PKC delta, 30° C.; read-out: Ki PKC delta
Procedure, shortened: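 Assay buffer was 100 mM HEPES pH 7.5, 10 mM MgCl2, 25 mM NaCl, 0.1 mM EDTA, 0.01% Brij. Enzyme buffer was equilibrated with compound in DMSO for 10 min at 30 °C. Ki values were derived by non-linear regression of initial rate data.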

[2] = target: PKC alpha kinase (Homo sapiens, UniProt P17252); test: PKC alpha kinase inhibition, coupled-enzyme NADH absorbance assay (Ki); details: 130 μM ATP, 4.5 nM PKC alpha, 30° C.; read-out: Ki PKC alpha
[3] = target: PKC theta kinase (Homo sapiens, UniProt Q04759); test: PKC theta kinase inhibition, coupled-enzyme NADH absorbance assay (Ki); details: 240 μM ATP, 18 nM PKC theta, 30° C.; read-out: Ki PKC theta
Chain of PKC theta kinase (Q04759 whole entry): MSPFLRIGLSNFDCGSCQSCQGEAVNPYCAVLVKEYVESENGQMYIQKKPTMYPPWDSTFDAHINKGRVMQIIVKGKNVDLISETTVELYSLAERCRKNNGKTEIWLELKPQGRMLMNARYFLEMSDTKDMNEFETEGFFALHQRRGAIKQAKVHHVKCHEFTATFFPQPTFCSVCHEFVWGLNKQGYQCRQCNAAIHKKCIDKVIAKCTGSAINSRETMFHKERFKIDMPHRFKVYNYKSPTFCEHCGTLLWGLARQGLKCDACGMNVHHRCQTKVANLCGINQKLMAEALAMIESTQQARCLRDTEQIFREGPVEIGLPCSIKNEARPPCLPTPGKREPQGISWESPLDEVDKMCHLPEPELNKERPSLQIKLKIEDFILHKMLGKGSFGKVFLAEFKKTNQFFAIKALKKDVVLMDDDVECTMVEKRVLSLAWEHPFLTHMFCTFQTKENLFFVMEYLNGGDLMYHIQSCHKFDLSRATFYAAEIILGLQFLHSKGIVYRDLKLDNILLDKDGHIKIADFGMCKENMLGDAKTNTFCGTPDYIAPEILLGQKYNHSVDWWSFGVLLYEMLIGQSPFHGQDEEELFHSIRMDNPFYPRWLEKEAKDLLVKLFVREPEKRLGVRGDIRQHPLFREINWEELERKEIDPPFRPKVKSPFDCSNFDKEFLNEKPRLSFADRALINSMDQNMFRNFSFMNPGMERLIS
Procedure, shortened: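 Enzyme and compound equilibrated 10 min at 30 °C before reaction in HEPES pH 7.5 buffer with MgCl2, NaCl, EDTA and Brij. Activity tracked as NADH loss at 340 nm through a coupled system. Initial-rate data fitted by non-linear regression to give Ki.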

Chain of PKC delta kinase (Q05655 whole entry): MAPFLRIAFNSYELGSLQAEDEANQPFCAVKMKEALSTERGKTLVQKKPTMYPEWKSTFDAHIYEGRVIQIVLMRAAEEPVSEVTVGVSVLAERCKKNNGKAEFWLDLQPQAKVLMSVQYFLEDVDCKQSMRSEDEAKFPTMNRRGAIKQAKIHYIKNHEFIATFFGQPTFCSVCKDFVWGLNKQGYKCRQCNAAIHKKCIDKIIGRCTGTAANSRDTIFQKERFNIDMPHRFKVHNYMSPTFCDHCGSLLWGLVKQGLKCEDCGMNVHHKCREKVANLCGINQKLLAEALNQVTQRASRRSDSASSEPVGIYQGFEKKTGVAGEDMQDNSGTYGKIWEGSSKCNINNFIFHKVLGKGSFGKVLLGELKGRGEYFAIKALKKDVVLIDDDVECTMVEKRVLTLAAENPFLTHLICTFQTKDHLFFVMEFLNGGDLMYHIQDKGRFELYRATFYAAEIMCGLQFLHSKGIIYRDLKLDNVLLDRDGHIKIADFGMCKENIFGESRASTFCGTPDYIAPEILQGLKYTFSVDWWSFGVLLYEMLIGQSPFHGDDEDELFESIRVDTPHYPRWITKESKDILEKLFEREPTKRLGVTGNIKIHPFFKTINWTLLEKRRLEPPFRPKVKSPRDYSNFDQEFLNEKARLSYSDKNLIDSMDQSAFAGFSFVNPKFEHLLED

SMILES	Ki [1]	Ki [2]	Ki [3]
N[C@H]1CCC[C@@H]1c1cccc(-c2ccnc3[nH]ncc23)c1 [Compound 251]	> 1200 nM	> 1200 nM	< 500 nM
CCC(C)(CN)c1cc(-c2ccnc3[nH]ncc23)cc(C(F)F)c1 (stereo not drawn) [Compound 162]	< 500 nM	< 500 nM	< 50 nM
CCC(C)(C#N)c1cc(-c2ccnc3[nH]ncc23)cc(C(F)(F)CC2CCCCC2)c1 (stereo not drawn) [Compound 119]	> 2000 nM	> 1200 nM	> 700 nM
CCCc1cc(-c2ccnc3[nH]ncc23)cc(C(C)(CC)CN)c1 (stereo not drawn) [Compound 130]	< 2800 nM	< 2800 nM	< 50 nM
CCCc1cc(-c2ccnc3[nH]ncc23)cc(C(C)(C)CN)c1 [Compound 42]	< 2800 nM	< 2800 nM	< 500 nM
OCC1(c2cccc(-c3ccnc4[nH]nc(C(F)(F)F)c34)c2)CCC1 [Compound 291]	< 2800 nM	> 1200 nM	< 50 nM
Cc1n[nH]c2nccc(-c3cc(F)cc(C4(CN)CCC4)c3)c12 [Compound 262]	< 500 nM	< 500 nM	< 50 nM
CC(C)(C#N)c1cc(-c2ccnc3[nH]ncc23)cc(N2CCC2)c1 [Compound 11]	> 2800 nM	> 2800 nM	< 500 nM
CCCc1cc(-c2ccnc3[nH]ncc23)cc(C(C)(C)CC#N)c1 [Compound 218]	> 2000 nM	< 2800 nM	< 500 nM
CC(C#N)(Cc1ccccc1)c1cccc(-c2ccnc3[nH]ncc23)c1 (stereo not drawn) [Compound 100]	> 2800 nM	> 390 nM	> 210 nM
C=CCC1(c2cc(C)cc(-c3ccnc4[nH]ncc34)c2)CNC(=O)O1 (stereo not drawn) [Compound 325]	> 1200 nM	< 500 nM	< 500 nM
COCCC(C)(CN)c1cccc(-c2ccnc3[nH]ncc23)c1 (stereo not drawn) [Compound 146]	< 500 nM	< 2800 nM	< 50 nM
OCC1(c2cccc(-c3ccnc4[nH]ncc34)c2)CCNC1 (stereo not drawn) [Compound 196]	< 2800 nM	< 2800 nM	< 50 nM
CC(C)C(C)(C#N)c1cccc(-c2ccnc3[nH]ncc23)c1 (stereo not drawn) [Compound 70]	< 2800 nM	< 2800 nM	< 500 nM
CCC(C)(CN)c1cc(CC(C)C)cc(-c2ccnc3[nH]ncc23)c1 (stereo not drawn) [Compound 137]	> 2800 nM	> 2800 nM	< 500 nM
